Twelve molecules from ChEMBL document CHEMBL4742393, “Compounds for treatment of hypoproliferative disorders” (2019) can be followed below.

Active and inactive are the calls of the source. No cut-off for these calls is given here.

A short description of experiment [1]: Rescue of cell survival defect in RPS19-deficient erythroid progenitor cells isolated from mouse model of DBA assessed as live cell levels at 5 uM by 7-AAD dye based FACS analysis (reference value: 31%). Type of experiment: functional. On the technique in general: A flow cytometer gives signals particle by particle.
A short description of experiment [2]: Rescue of cell survival defect in RPS19-deficient erythroid progenitor cells isolated from mouse model of DBA assessed as c-kit+ progenitor cell levels at 5 uM by 7-AAD dye based FACS analysis (reference value: 38%). Type of experiment: functional.
The next experiment relates to Mus musculus. Description: Induction of rescue of anemia in RPS19-deficient mouse model for DBA assessed as improvement in erythrocytes production at 10 mg/kg, po dosed every 12 hrs for 5 times and measured 48 hrs after last dose. The following applies: time 108.0 hrs. Type of experiment: functional, organism-based.
In experiment [3] the target is Cyclin-dependent kinase 19 (Homo sapiens) (UniProt Q9BWU1). Description: Inhibition of CDK19(CDK11) (unknown origin) assessed as residual ligand binding level at 10000 nM relative to control.
In experiment [4] the target is Casein kinase I isoform alpha (Homo sapiens) (UniProt P48729). As to the kind of experiment: Inhibition of CSNK1A1 (unknown origin) assessed as residual ligand binding level at 10000 nM relative to control.
In experiment [5] the target is Casein kinase I isoform alpha-like (Homo sapiens) (UniProt Q8N752). Description: Inhibition of CSNK1A1L (unknown origin) assessed as residual ligand binding level at 10000 nM relative to control.
The target of experiment [6] is Casein kinase I isoform delta (Homo sapiens) (UniProt P48730). Description: Inhibition of CSNK1D (unknown origin) assessed as residual ligand binding level at 10000 nM relative to control.
Experiment [7] concerns the target Casein kinase I isoform epsilon (Homo sapiens) (UniProt P49674). As to the kind of experiment: Inhibition of CSNK1E (unknown origin) assessed as residual ligand binding level at 10000 nM relative to control.
The target of experiment [8] is Casein kinase I isoform gamma-1 (Homo sapiens) (UniProt Q9HCP0). Description: Inhibition of CSNK1G1 (unknown origin) assessed as residual ligand binding level at 10000 nM relative to control.
The target of experiment [9] is Casein kinase I isoform gamma-2 (Homo sapiens) (UniProt P78368). Description: Inhibition of CSNK1G2 (unknown origin) assessed as residual ligand binding level at 10000 nM relative to control.
The target of experiment [10] is Casein kinase I isoform gamma-3 (Homo sapiens) (UniProt Q9Y6M4). As to the kind of experiment: Inhibition of CSNK1G3 (unknown origin) assessed as residual ligand binding level at 10000 nM relative to control.
The target in experiment [11] is Death-associated protein kinase 1 (Homo sapiens) (UniProt P53355). As to the kind of experiment: Inhibition of DAPK1 (unknown origin) assessed as residual ligand binding level at 10000 nM relative to control.
For experiment [12], the target named is Dual specificity tyrosine-phosphorylation-regulated kinase 1A (Homo sapiens) (UniProt Q13627). Description: Inhibition of DYRK1A (unknown origin) assessed as residual ligand binding level at 10000 nM relative to control.
Experiment [13] addresses Dual specificity tyrosine-phosphorylation-regulated kinase 1B (Homo sapiens) (UniProt Q9Y463). As to the kind of experiment: Inhibition of DYRK1B (unknown origin) assessed as residual ligand binding level at 10000 nM relative to control.
Experiment [14] addresses Dual specificity tyrosine-phosphorylation-regulated kinase 2 (Homo sapiens) (UniProt Q92630). As to the kind of experiment: Inhibition of DYRK2 (unknown origin) assessed as residual ligand binding level at 10000 nM relative to control.
The species entered for a further experiment is Homo sapiens. As to the kind of experiment: Inhibition of GCN2 kinase domain 2 […] mutant (unknown origin) assessed as residual ligand binding level at 10000 nM relative to control.
For experiment [15], the target named is Homeodomain-interacting protein kinase 1 (Homo sapiens) (UniProt Q86Z02). Description: Inhibition of HIPK1 (unknown origin) assessed as residual ligand binding level at 10000 nM relative to control.
Experiment [16] has as its target Mitogen-activated protein kinase 14 (Homo sapiens) (UniProt Q16539). Description: Inhibition of p38-alpha (unknown origin) assessed as residual ligand binding level at 10000 nM relative to control.
Experiment [17] has as its target Serine/threonine-protein kinase pim-1 (Homo sapiens) (UniProt P11309). As to the kind of experiment: Inhibition of PIM1 (unknown origin) assessed as residual ligand binding level at 10000 nM relative to control.
Experiment [18] addresses Ribosomal protein S6 kinase alpha-6 (Homo sapiens) (UniProt Q9UK32). Description: Inhibition of RSK4 c-terminal kinase domain (unknown origin) assessed as residual ligand binding level at 10000 nM relative to control.
For experiment [19], the target named is TGF-beta receptor type-1 (Homo sapiens) (UniProt P36897). Description: Inhibition of TGFBR1 (unknown origin) assessed as residual ligand binding level at 10000 nM relative to control.
Experiment [20] in a line: Rescue of cell survival defect in RPS19-deficient erythroid progenitor cells isolated from mouse model of DBA assessed as live cell levels at 0.03 uM by 7-AAD dye based FACS analysis (reference value: 31%). Type of experiment: functional.
A short description of experiment [21]: Rescue of cell survival defect in RPS19-deficient erythroid progenitor cells isolated from mouse model of DBA assessed as c-kit+ progenitor cell levels at 0.03 uM by 7-AAD dye based FACS analysis (reference value: 38%). Type of experiment: functional.
Experiment [22] concerns Erythroid progenitor cell. Description: Rescue of proliferation of CD34+ erythroid progenitor cells isolated from DBA patient with […] mutation at 200 nM measured at day 14 of culture. Type of experiment: functional, tissue-based. The following applies: Homo sapiens, time 14.0 day.
In experiment [23] the test system is CD34-positive (myeloid/lymphoid) cell. As to the kind of experiment: Rescue of proliferation of CD34+ erythroid progenitor cells isolated from DBA patient with RPS26 mutation at 200 nM measured at day 14 of culture. Type of experiment: functional, tissue-based. The note with it: Homo sapiens, time 14.0 day.
For experiment [24] the test system is unchanged. As to the kind of experiment: Rescue of proliferation of CD34+ erythroid progenitor cells isolated from DBA patient with RPS19 mutation at 200 nM measured at day 14 of culture. Type of experiment: functional, tissue-based. The note with it: Homo sapiens, time 14.0 day.
Experiment [25] relates to Erythroid progenitor cell. As to the kind of experiment: Increase in erythroid maturation of erythroid progenitor cells isolated from DBA patient assessed as increase in CD71 and CD235a positive cells level measured at day 8 of culture by flow cytometry. The note with it: Homo sapiens. The format is functional, tissue-based.
Experiment [26] addresses T1, CDK8/CDK19 (Mus musculus) (UniProt Q8R3L8+Q8BWD8). As to the kind of experiment: Inhibition of CDK8/CDK19 assessed as rescue of proliferation of RPS19-deficient mouse erythroid progenitor cells by cell-based phenotypic screening assay. Type of experiment: tissue-based.
Experiment [27] deals with T1, CDK8/CDK19 (Mus musculus). Description: Inhibition of CDK8/CDK19 assessed as rescue of proliferation of RPS19-deficient erythroid progenitor cells isolated from mouse model of DBA by cell-based phenotypic screening assay relative to control. The format is tissue-based.

T1 sequence (Q8BWD8 whole entry, looked up): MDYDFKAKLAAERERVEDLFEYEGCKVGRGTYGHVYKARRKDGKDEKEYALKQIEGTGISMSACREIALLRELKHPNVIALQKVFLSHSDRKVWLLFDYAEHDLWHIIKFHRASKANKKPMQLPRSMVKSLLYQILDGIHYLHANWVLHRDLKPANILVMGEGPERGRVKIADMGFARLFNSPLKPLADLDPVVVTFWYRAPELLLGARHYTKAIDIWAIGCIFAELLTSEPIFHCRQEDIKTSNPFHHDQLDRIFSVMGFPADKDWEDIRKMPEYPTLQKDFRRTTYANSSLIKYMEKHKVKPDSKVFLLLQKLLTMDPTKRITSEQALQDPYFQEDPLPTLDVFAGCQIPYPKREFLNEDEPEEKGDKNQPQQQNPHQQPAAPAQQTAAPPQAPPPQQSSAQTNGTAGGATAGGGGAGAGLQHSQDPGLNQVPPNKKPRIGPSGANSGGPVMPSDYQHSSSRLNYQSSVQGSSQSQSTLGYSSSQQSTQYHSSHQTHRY
T1 sequence (Q8R3L8 whole entry, looked up): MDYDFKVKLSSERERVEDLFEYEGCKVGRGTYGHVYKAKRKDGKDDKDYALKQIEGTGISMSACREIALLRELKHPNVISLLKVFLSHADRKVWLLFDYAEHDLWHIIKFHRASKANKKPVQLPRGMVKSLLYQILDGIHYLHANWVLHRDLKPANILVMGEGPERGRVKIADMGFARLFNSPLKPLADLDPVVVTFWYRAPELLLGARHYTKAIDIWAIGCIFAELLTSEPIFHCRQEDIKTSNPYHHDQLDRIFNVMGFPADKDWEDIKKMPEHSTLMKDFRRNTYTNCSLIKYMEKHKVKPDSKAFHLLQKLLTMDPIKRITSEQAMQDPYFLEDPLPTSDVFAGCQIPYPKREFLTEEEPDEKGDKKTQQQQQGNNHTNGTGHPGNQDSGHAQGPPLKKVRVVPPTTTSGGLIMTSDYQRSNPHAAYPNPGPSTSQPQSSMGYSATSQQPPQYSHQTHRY
Ribosomal protein S6 kinase alpha-6 (Homo sapiens), sequence (Q9UK32 whole entry, the tested form may be a part): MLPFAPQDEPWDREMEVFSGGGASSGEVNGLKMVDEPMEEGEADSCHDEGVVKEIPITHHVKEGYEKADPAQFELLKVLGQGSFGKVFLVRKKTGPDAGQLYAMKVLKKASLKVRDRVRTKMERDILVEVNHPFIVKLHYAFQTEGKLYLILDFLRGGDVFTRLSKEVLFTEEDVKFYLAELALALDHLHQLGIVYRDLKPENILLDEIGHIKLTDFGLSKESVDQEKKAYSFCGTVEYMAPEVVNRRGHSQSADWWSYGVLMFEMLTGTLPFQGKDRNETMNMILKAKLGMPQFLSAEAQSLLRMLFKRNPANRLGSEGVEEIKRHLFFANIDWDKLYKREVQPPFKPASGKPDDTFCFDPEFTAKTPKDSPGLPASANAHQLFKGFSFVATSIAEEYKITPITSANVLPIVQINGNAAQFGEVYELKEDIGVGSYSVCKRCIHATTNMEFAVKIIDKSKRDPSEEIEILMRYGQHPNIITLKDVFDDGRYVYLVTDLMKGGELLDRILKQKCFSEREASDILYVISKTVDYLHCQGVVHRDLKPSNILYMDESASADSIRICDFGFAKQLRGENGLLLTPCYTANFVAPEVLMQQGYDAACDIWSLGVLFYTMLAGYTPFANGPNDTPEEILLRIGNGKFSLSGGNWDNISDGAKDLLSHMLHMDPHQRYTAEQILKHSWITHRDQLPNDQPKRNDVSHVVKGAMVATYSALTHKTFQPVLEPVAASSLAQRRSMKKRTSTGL
Casein kinase I isoform gamma-3 (Homo sapiens), sequence (Q9Y6M4 whole entry, looked up, canonical isoform): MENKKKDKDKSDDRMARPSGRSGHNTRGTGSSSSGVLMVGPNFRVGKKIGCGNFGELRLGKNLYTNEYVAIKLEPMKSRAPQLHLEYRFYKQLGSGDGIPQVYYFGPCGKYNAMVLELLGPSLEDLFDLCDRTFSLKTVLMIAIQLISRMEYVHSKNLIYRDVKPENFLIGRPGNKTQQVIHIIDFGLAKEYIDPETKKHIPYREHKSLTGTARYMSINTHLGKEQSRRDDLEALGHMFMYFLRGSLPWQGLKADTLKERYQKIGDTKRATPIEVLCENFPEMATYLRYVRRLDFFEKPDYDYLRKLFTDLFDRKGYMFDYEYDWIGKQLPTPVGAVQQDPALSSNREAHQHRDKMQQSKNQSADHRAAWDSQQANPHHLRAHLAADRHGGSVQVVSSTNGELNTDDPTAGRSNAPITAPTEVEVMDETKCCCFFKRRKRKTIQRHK
Dual specificity tyrosine-phosphorylation-regulated kinase 2 (Homo sapiens), sequence (Q92630 whole entry, the tested form may be a part): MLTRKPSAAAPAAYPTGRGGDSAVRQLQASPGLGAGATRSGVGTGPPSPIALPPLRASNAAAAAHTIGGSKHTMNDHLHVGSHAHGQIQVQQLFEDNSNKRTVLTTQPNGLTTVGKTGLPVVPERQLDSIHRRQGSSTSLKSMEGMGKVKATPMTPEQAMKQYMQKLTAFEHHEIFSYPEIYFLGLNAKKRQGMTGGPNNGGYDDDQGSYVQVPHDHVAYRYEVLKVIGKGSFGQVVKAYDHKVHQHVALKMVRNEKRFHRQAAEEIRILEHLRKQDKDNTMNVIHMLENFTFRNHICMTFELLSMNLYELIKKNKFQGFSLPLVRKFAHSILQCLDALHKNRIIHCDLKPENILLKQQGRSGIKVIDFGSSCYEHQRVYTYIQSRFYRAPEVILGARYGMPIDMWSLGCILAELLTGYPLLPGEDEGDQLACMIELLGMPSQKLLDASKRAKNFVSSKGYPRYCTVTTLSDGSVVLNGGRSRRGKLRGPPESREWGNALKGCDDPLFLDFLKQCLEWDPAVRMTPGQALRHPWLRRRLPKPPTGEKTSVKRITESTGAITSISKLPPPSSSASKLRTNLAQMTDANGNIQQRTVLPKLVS
Casein kinase I isoform gamma-2 (Homo sapiens), sequence (P78368 whole entry, looked up, canonical isoform): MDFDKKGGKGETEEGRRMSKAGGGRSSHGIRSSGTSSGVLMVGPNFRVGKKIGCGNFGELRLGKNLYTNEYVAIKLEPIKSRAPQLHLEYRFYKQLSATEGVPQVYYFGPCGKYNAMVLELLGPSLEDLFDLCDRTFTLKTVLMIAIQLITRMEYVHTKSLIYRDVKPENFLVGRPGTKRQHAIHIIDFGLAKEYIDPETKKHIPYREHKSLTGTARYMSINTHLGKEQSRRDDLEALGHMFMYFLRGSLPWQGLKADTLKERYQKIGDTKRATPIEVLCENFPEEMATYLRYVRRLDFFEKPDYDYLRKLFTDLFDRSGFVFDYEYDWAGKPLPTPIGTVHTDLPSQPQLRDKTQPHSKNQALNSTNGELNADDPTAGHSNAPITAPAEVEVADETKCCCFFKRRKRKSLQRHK
Mitogen-activated protein kinase 14 (Homo sapiens), sequence (Q16539 whole entry): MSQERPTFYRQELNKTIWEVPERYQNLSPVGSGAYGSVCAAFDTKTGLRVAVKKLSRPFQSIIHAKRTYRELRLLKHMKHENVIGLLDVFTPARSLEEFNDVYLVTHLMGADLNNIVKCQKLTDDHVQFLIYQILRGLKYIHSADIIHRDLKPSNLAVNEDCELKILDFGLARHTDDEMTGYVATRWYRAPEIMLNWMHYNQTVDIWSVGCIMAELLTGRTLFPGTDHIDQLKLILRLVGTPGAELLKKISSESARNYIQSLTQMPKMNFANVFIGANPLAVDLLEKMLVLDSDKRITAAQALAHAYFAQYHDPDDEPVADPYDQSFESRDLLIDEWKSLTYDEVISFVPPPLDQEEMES
Casein kinase I isoform alpha (Homo sapiens), sequence (P48729 2-337 limits assumed): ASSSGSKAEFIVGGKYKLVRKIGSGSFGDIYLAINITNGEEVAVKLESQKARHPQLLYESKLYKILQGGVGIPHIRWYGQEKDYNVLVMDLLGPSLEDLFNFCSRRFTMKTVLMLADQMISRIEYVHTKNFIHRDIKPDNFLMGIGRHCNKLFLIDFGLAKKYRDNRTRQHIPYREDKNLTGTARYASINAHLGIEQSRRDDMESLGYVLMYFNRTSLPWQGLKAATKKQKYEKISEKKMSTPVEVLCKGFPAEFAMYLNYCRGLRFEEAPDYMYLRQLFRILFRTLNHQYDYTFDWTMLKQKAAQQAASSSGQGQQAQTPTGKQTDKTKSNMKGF
Serine/threonine-protein kinase pim-1 (Homo sapiens), sequence (P11309 whole entry, looked up, the tested form may be a part): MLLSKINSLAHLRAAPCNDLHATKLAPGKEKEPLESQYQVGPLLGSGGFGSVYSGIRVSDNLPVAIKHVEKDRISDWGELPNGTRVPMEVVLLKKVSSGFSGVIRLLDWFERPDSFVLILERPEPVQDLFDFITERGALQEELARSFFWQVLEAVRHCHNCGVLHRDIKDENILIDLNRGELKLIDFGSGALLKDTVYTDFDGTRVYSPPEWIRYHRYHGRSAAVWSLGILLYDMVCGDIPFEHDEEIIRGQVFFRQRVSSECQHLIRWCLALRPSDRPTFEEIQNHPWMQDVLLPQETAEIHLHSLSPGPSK
Dual specificity tyrosine-phosphorylation-regulated kinase 1B (Homo sapiens), sequence (Q9Y463 whole entry, looked up): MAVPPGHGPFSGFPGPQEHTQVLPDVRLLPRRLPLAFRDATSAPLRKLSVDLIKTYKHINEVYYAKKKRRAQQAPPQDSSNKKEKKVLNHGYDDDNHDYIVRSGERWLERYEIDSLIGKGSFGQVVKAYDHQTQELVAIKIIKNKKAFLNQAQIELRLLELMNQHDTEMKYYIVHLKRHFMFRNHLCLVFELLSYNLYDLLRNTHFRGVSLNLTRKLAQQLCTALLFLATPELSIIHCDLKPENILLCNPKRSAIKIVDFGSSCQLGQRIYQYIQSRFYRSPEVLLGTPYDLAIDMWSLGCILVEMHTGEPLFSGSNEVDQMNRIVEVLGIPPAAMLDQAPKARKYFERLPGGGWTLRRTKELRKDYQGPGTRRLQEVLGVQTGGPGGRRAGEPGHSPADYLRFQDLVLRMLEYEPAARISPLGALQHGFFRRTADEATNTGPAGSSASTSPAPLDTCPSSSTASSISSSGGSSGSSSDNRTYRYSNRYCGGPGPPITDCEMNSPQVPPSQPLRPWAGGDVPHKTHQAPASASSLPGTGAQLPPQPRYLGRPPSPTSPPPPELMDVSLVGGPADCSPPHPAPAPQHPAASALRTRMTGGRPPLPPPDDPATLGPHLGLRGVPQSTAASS

Take `N#Cc1ccc2ncnc(NCCc3ccccc3)c2c1`: the values for the Activity in [1] and in [2] were 77% and 65%, respectively. Besides, in the experiment on Mus musculus, the result was Active.

As to `COCc1cc(C)nc2sc(C(N)=O)c(N)c12`, the Activity in experiment [3] was 0%; in experiment [4], 11%; in experiment [5] it was 25%; in experiment [6], 10%; in experiment [7], 14%; in [8] it was 84%. In addition, the Activity in experiment [9] came to 73%; in experiment [10] it was 67%; in experiment [11] it was 84%; in experiment [12] it was 50%; in [13], 41%; in experiment [14], 46%. Also, the Activity in the experiment listed under Homo sapiens is 94%; in experiment [15] it was 61%; in experiment [16] it was 88%; in experiment [17], 87%; in [18], 72%; in experiment [19], 95%. The result in the experiment on Mus musculus was Active.

Regarding `COc1ccc(-c2cc(C3CC3)nc3sc(C(N)=O)c(N)c23)cc1`, the outcome with Mus musculus was Active.

For `Cc1c(C(N)=O)sc2nc(C(F)(F)F)cc(N)c12`, in the experiment on Mus musculus, the outcome was Active.

As to `Cn1cc(-c2ccc(-c3cncc(Cl)c3N3CCC4(CCNC4=O)CC3)cc2)cn1`, the result with Mus musculus was Active.

As to `CCc1nc2sc(C(N)=O)c(N)c2c2c1CCCC2`, in the experiment on Mus musculus, the outcome was Active.

As to `CN(C)C(=O)Cc1ccc(N2CCCN(c3ccnc4sc(C(N)=O)c(N)c34)CC2)cc1`, the Activity in experiment [20] is on record as 70%; in experiment [21] it was 63%. Also, the outcome (with Mus musculus; in experiment [22]; in [23]; in experiment [24]; in experiment [25]) was Active. Besides, in experiment [26], the inhibition result was “Dose-dependent effect”.

`NC(=O)c1sc2nccc(N3CCCN(c4ccccc4)CC3)c2c1N`: the outcome in the experiment with Mus musculus was Active. Besides, in experiment [26], the inhibition entry was “Dose-dependent effect”.

Take `CN(C)c1ccnc2sc(C(N)=O)c(N)c12`: in the experiment on Mus musculus, the outcome was Active. Besides, the inhibition entry in experiment [26] was “Dose-dependent effect”.

`Cn1ncc2cc(-c3cnc(N)c(Cl)c3N3CCC4(CCNC4=O)CC3)ccc21`: the result in the experiment on Mus musculus was Active. Further, the ECmax result in experiment [27] was “inactive”.

As for `CN1CCN(C(=O)c2ccc3cc(CCNc4ncnc5ccc(C#N)cc45)ccc3c2)CC1`, the outcome (with Mus musculus; in experiment [22]; in [23]; in experiment [24]; in [25]) was Active.

Take `Cc1c(Br)c(Br)c2c3c1nc(N1CCNCC1)n3CCC2`: the outcome (in the experiment with Mus musculus; in experiment [22]; in [23]; in experiment [24]; in experiment [25]) was Active.
